Measurements from patent publication US20230151025A1, “SUBSTITUTED THIAZOLOPYRIDINES, SALTS THEREOF AND THEIR USE AS HERBICIDALLY ACTIVE SUBSTANCES” (Bayer Aktiengesellschaft, priority 2020, published 2023).

Assays:
Type in all cases: in vivo
[1] = tested on: Abutilon theophrasti (ABUTH); assay: Herbicidal pre-emergence action (A), 1280 g/ha; details: visual grading after ca. 3 weeks vs untreated controls, 100% = plants have died off, 0% = as control plants
Procedure, shortened: (§1)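 Visual grading of plant damage in percent (0% as untreated control, 100% dead) was done about 3 weeks after treatment. Compounds, as WP or EC in water with 0.5% additive, had been sprayed at 600 l/ha onto the covering soil of freshly sown sandy loam pots.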

[2] = tested on: Alopecurus myosuroides (ALOMY); assay: Herbicidal pre-emergence action (A), 1280 g/ha; details: visual grading after ca. 3 weeks vs untreated controls, 100% = plants have died off, 0% = as control plants
Procedure, shortened: as §1

[3] = tested on: Amaranthus retroflexus (AMARE); assay: Herbicidal pre-emergence action (A), 1280 g/ha; details: visual grading after ca. 3 weeks vs untreated controls
Procedure, shortened: as §1

[4] = tested on: Digitaria sanguinalis (DIGSA); assay: Herbicidal pre-emergence action (A), 1280 g/ha; details: visual grading after ca. 3 weeks vs untreated controls, 100% = plants have died off, 0% = as control plants
Procedure, shortened: as §1

[5] = tested on: Echinochloa crus-galli (ECHCG); assay: Herbicidal pre-emergence action (A), 1280 g/ha; details: visual grading after ca. 3 weeks vs untreated controls, 100% = plants have died off, 0% = as control plants
Procedure, shortened: as §1

[6] = tested on: Kochia scoparia (KCHSC; Bassia scoparia); assay: Herbicidal pre-emergence action (A), 1280 g/ha; details: visual grading after ca. 3 weeks vs untreated controls
Procedure, shortened: as §1

Lolium rigidum (LOLRI) [7] = assay: Herbicidal pre-emergence action (A), 1280 g/ha; details: visual grading after ca. 3 weeks vs untreated controls, 100% = plants have died off, 0% = as control plants
Procedure, shortened: as §1

[8] = tested on: Matricaria inodora (MATIN); assay: Herbicidal pre-emergence action (A), 1280 g/ha; details: visual grading after ca. 3 weeks vs untreated controls
Procedure, shortened: as §1

Poa annua (POAAN) [9] = assay: Herbicidal pre-emergence action (A), 1280 g/ha; details: visual grading after ca. 3 weeks vs untreated controls, 100% = plants have died off, 0% = as control plants
Procedure, shortened: as §1

Setaria viridis (SETVI) [10] = assay: Herbicidal pre-emergence action (A), 1280 g/ha; details: visual grading after ca. 3 weeks vs untreated controls
Procedure, shortened: as §1

Stellaria media (STEME) [11] = assay: Herbicidal pre-emergence action (A), 1280 g/ha; details: visual grading after ca. 3 weeks vs untreated controls
Procedure, shortened: as §1

Veronica persica (VERPE) [12] = assay: Herbicidal pre-emergence action (A), 1280 g/ha; details: visual grading after ca. 3 weeks vs untreated controls
Procedure, shortened: as §1

[13] = tested on: Alopecurus myosuroides (ALOMY); assay: Herbicidal post-emergence action (B), 1280 g/ha; details: rated visually after about 3 weeks vs untreated controls
Procedure, shortened: (§2)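 Greenhouse-grown weeds at the one-leaf stage received a foliar spray of the formulated compound (WP or EC, 0.5% additive, 600 L/ha). Damage was scored visually after about 3 weeks on a 0–100% scale against untreated plants.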

[14] = tested on: Amaranthus retroflexus (AMARE); assay: Herbicidal post-emergence action (B), 1280 g/ha; details: rated visually after about 3 weeks vs untreated controls
Procedure, shortened: as §2

[15] = tested on: Echinochloa crus-galli (ECHCG); assay: Herbicidal post-emergence action (B), 1280 g/ha; details: rated visually after about 3 weeks vs untreated controls
Procedure, shortened: as §2

[16] = tested on: Kochia scoparia (KCHSC; Bassia scoparia); assay: Herbicidal post-emergence action (B), 1280 g/ha
Procedure, shortened: as §2

Lolium rigidum (LOLRI) [17] = assay: Herbicidal post-emergence action (B), 1280 g/ha; details: one-leaf stage, rated after about 3 weeks vs untreated controls, 100% activity = the plants have died, 0% = like control plants
Procedure, shortened: as §2

Poa annua (POAAN) [18] = assay: Herbicidal post-emergence action (B), 1280 g/ha; details: rated visually after about 3 weeks vs untreated controls
Procedure, shortened: as §2

Stellaria media (STEME) [19] = assay: Herbicidal post-emergence action (B), 1280 g/ha
Procedure, shortened: as §2

Veronica persica (VERPE) [20] = assay: Herbicidal post-emergence action (B), 1280 g/ha
Procedure, shortened: as §2

[21] = tested on: Alopecurus myosuroides (ALOMY); assay: Herbicidal pre-emergence action (C), 320 g/ha; details: ca. 3 weeks
Procedure, shortened: (§3)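 Pre-emergence greenhouse test: visual damage rating at about 3 weeks relative to untreated plants, 100% meaning death and 0% no effect. Compounds, as wettable powders or emulsifiable concentrates with 0.5% additive, were applied at 320 g/ha (600 l water/ha) onto soil covering seeds sown in sandy loam.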

[22] = tested on: Amaranthus retroflexus (AMARE); assay: Herbicidal pre-emergence action (C), 320 g/ha; details: ca. 3 weeks
Procedure, shortened: as §3

[23] = tested on: Echinochloa crus-galli (ECHCG); assay: Herbicidal pre-emergence action (C), 320 g/ha; details: ca. 3 weeks
Procedure, shortened: as §3

Lolium rigidum (LOLRI) [24] = assay: Herbicidal pre-emergence action (C), 320 g/ha; details: ca. 3 weeks
Procedure, shortened: as §3

[25] = tested on: Polygonum convolvulus (POLCO); assay: Herbicidal pre-emergence action (C), 320 g/ha; details: ca. 3 weeks
Procedure, shortened: as §3

Setaria viridis (SETVI) [26] = assay: Herbicidal pre-emergence action (C), 320 g/ha; details: ca. 3 weeks
Procedure, shortened: as §3

Veronica persica (VERPE) [27] = assay: Herbicidal pre-emergence action (C), 320 g/ha; details: ca. 3 weeks
Procedure, shortened: as §3

[28] = tested on: Alopecurus myosuroides (ALOMY); assay: Herbicidal post-emergence action (D), 320 g/ha; details: ca. 3 weeks
Procedure, shortened: (§4)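 Seedlings reaching the single-leaf stage 2 to 3 weeks after sowing in sandy loam received a foliar spray of the formulated compound (WP or EC, 0.5% additive, 600 l water/ha). Damage is rated visually after about 3 weeks in the greenhouse as percent effect relative to untreated plants.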

[29] = tested on: Amaranthus retroflexus (AMARE); assay: Herbicidal post-emergence action (D), 320 g/ha; details: ca. 3 weeks
Procedure, shortened: as §4

Veronica persica (VERPE) [30] = assay: Herbicidal post-emergence action (D), 320 g/ha; details: ca. 3 weeks
Procedure, shortened: as §4

[31] = tested on: Digitaria sanguinalis (DIGSA); assay: Herbicidal pre-emergence action (C), 320 g/ha; details: ca. 3 weeks
Excerpt: Seeds of mono- and dicotyledonous weed plants and crop plants were sown, in plastic or organic planting pots, in sandy loam and covered with soil. The compounds according to the invention, formulated in the form of wettable powders (WP) or as emulsifiable concentrates (EC), were applied to the surface of the covering soil as aqueous suspension or emulsion, with the addition of 0.5% of an additive, at an application rate of 600 l of water/ha (converted).
Following treatment, the pots were placed in a greenhouse and kept under optimum growth conditions for the test plants. The visual grading of the damage to the test plants was carried out after ca. 3 weeks in comparison to untreated controls (herbicidal effect in percent (%): 100% effect=plants have died off, 0% effect=as control plants).
Tables C1 to C13 below show the effects of selected compounds of the general formula (I) according to table 1 on various harmful plants and an application rate corresponding to 320 g/ha obtained by the experimental procedure mentioned above.

| SMILES | ABUTH, herbicidal effect in percent (%) [1] [%] | ALOMY, herbicidal effect in percent (%) [2] [%] | herbicidal effect AMARE [3] [%] | DIGSA, herbicidal effect in percent (%) [4] [%] | ECHCG, herbicidal effect in percent (%) [5] [%] | herbicidal effect KCHSC [6] [%] | LOLRI, herbicidal effect in percent (%) (Lolium rigidum (LOLRI) [7]) | herbicidal effect MATIN [8] [%] | POAAN, herbicidal effect in percent (%) (Poa annua (POAAN) [9]) | herbicidal effect SETVI (Setaria viridis (SETVI) [10]) [%] | herbicidal effect STEME (Stellaria media (STEME) [11]) [%] | herbicidal effect VERPE (Veronica persica (VERPE) [12]) [%] | herbicidal activity ALOMY [13] [%] | herbicidal activity AMARE [14] [%] | herbicidal effect KCHSC [16] [%] | herbicidal activity POAAN (Poa annua (POAAN) [18]) [%] | herbicidal effect STEME (Stellaria media (STEME) [19]) [%] | herbicidal effect VERPE (Veronica persica (VERPE) [20]) [%] | herbicidal effect ALOMY [21] [%] | herbicidal effect AMARE [22] [%] | also measured |
| --- | --- | --- | --- | --- | --- | --- | --- | --- | --- | --- | --- | --- | --- | --- | --- | --- | --- | --- | --- | --- | --- |
| Cc1cccc(F)c1-c1nc2ncsc2cc1Cl [Example I-013] | 90 | 100 | 90 | 100 | 100 | 100 | 100 | 90 | 100 | 100 | 100 | 90 | 100 | 100 | 100 | 90 | 100 | 100 | 100 | 90 | herbicidal activity ECHCG [15]: 100%; LOLRI, activity rated visually (%) (Lolium rigidum (LOLRI) [17]): 90%; herbicidal effect ECHCG [23]: 100%; herbicidal effect LOLRI (Lolium rigidum (LOLRI) [24]): 100%; herbicidal effect POLCO [25]: 80%; herbicidal effect SETVI (Setaria viridis (SETVI) [26]): 100%; herbicidal effect VERPE (Veronica persica (VERPE) [27]): 80%; herbicidal effect ALOMY [28]: 80%; herbicidal effect AMARE [29]: 80%; herbicidal effect VERPE (Veronica persica (VERPE) [30]): 80% |
| Cc1cc2scnc2nc1C12CCCCC1O2 (stereo not shown) [Example I-151] | 90 | 100 | 100 | 100 | 100 | 100 | 100 | 90 | 100 | 100 | 100 | 90 | 100 | 100 | 100 | 100 | 100 | 100 | 100 | 90 | herbicidal effect LOLRI (Lolium rigidum (LOLRI) [24]): 90%; herbicidal effect POLCO [25]: 80%; herbicidal effect SETVI (Setaria viridis (SETVI) [26]): 100%; herbicidal effect VERPE (Veronica persica (VERPE) [27]): 90%; herbicidal effect DIGSA [31]: 100%; herbicidal effect ALOMY [28]: 80%; herbicidal effect AMARE [29]: 80%; herbicidal effect VERPE (Veronica persica (VERPE) [30]): 80% |
